Target: T1, Ectonucleotide pyrophosphatase/phosphodiesterase family member 1 (Homo sapiens, UniProt P22413)
T1 sequence (P22413 whole entry): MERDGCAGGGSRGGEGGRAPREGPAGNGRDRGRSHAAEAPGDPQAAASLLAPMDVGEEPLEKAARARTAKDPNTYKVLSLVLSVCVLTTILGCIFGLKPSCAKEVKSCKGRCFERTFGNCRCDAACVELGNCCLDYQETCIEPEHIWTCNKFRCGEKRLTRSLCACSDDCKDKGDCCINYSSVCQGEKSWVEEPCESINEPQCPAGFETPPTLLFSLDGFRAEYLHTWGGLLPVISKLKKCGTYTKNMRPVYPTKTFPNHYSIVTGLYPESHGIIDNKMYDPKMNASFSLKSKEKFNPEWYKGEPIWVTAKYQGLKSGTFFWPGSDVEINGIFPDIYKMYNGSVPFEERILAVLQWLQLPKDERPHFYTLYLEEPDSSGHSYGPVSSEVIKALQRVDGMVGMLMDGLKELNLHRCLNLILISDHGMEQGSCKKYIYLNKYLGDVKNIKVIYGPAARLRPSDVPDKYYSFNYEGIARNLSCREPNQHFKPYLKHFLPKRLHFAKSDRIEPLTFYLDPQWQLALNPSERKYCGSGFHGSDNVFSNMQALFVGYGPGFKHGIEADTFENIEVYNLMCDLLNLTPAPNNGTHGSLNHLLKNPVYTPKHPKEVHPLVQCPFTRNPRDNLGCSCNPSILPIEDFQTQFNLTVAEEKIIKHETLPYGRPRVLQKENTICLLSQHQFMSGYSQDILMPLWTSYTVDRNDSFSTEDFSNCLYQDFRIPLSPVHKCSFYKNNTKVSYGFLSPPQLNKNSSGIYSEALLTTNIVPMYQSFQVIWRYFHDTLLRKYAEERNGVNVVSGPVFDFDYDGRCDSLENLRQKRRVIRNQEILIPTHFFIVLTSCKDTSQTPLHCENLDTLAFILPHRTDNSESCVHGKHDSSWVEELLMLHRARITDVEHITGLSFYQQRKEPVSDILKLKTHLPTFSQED
Experiment: Inhibition of ENPP1 hydrolysis of 2′,3′-cGAMP (Assay 1)
Experimental: Test compounds were plated in a 3× dilution scheme in a 384 well plate.

Row | Ki [µM] | Structure (SMILES)
1 | 0.000138 | Cc1c(Cc2ccc(S(C)(=N)=O)cc2)c(N(C)C)nc2ncnn12 (configuration not stated) [US20240376113, Compound 86]
2 | 0.028 | Cc1c(Cc2ccc(S(C)(=N)=O)cc2)c(N)cc2ncnn12 (configuration not stated) [US20240376113, Compound 89]

Reference: BindingDB's records for patent US20240376113 (Volastra Therapeutics, 2024)
